Reference: US11865146B2 (priority 2015, dated 2024)

System: C. difficile strain 630
Settings: BDM without glucose
Method: All strains for this study were maintained inside an anaerobic growth chamber with a gas mixture of 75% N2/20% CO2/5% H2 (Coy Lab Products, Grass Lake, MI). Liquid and solid growth media was allowed to reduce in the anaerobic chamber for a minimum of 24 hours prior to use. For transfer out of the chamber, liquid stocks were sealed in sterile, gas-tight crimp cap glass vials. C. difficile strain 630 was maintained at 37° C. on Clostridium difficile Moxalactam Norfloxacin (CDMN) blood agar plates (Aspinall et al. 1992 J Clin Pathol. 45:812-814), in Reinforced Clostridial Medium (RCM) broth (Difco DF1808173), or in Basal Defined Medium (BDM) (Karasawa et al. 1995 Microbiology. 141:371-375) broth. C. difficile amino acid (AA) utilization was assessed using modified BDM containing ½ or ¼ of the standard AA content. Proline utilization was assessed in modified BDM lacking glucose and proline. Bacterial growth rates were assessed using a BioTek Eon microplate spectrophotometer (BioTek, Winooski, VT).

SMILES: O=C(O)[C@@H]1CCCN1 [proline]
- C. difficile growth in the absence of proline: unable to grow
